System: K24384-001-R-PDC complex spheroid viability
Test: Anticancer human tumor K24384-001-R-PDC patient-derived pancreatic adenocarcinoma cell line growth inhibition
Conditions: for IC50: curve of first compound; for viability, T/C: stronger effect = lower value; active means viability on the fitted dose curve at most 10% of control; inactive means the rest
How it was run: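 Complex spheroids of tumor cells with HUVEC and human MSCs, exposed to iadademstat combined with other agents. Each agent tested in half-log steps from near clinical Cmax (else 10 microM top), DMSO ≤0.25%.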

[1] = second compound 0.1 µM, first compound 0.0316 µM
[2] = second compound 0.1 µM, first compound 0.1 µM
[3] = second compound 0.1 µM, first compound 0.316 µM
[4] = second compound 0.1 µM, first compound 1 µM
[5] = second compound 0.1 µM, first compound 3.16 µM
[6] = second compound 0.1 µM, first compound 10 µM
[7] = second compound 0.316 µM, first compound 0.0316 µM
[8] = second compound 0.316 µM, first compound 0.1 µM
[9] = second compound 0.316 µM, first compound 0.316 µM
[10] = second compound 0.316 µM, first compound 1 µM
[11] = second compound 0.316 µM, first compound 3.16 µM
[12] = second compound 0.316 µM, first compound 10 µM
[13] = second compound 1 µM, first compound 0.0316 µM
[14] = second compound 1 µM, first compound 0.1 µM
[15] = second compound 1 µM, first compound 0.316 µM
[16] = second compound 1 µM, first compound 1 µM
[17] = second compound 1 µM, first compound 3.16 µM
[18] = second compound 1 µM, first compound 10 µM
[19] = second compound 3.16 µM, first compound 0.0316 µM
[20] = second compound 3.16 µM, first compound 0.1 µM
[21] = second compound 3.16 µM, first compound 0.316 µM
[22] = second compound 3.16 µM, first compound 1 µM
[23] = second compound 3.16 µM, first compound 3.16 µM
[24] = second compound 3.16 µM, first compound 10 µM
[25] = second compound 10 µM, first compound 0.0316 µM
[26] = second compound 10 µM, first compound 0.1 µM
[27] = second compound 10 µM, first compound 0.316 µM
[28] = second compound 10 µM, first compound 1 µM
[29] = second compound 10 µM, first compound 3.16 µM
[30] = second compound 10 µM, first compound 10 µM
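Further: spheroids exposed to agents for seven days before luminescence viability reading.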
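Wherever viability, T/C is given: 100% = DMSO vehicle control viability.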

CC(C)c1c(-c2ccccc2)nc2c(C#N)c[nH]n2c1=O + NC1CCC(NC2CC2c2ccccc2)CC1
> 10000 nM: IC50 (second compound 0.1 µM) | IC50 (second compound 0.316 µM) | IC50 (second compound 1 µM) | IC50 (second compound 3.16 µM) | IC50 (second compound 10 µM)
inactive: viability, T/C [1] 78.2% | viability, T/C [2] 80.2% | viability, T/C [3] 77.7% | viability, T/C [4] 77.3% | viability, T/C [5] 81.4% | viability, T/C [6] 81% | viability, T/C [7] 78.3% | viability, T/C [8] 70.4% | viability, T/C [9] 85.8% | viability, T/C [10] 72.2% | viability, T/C [11] 77.1% | viability, T/C [12] 87.5% | viability, T/C [13] 72.5% | viability, T/C [14] 67.4% | viability, T/C [15] 96.3% | viability, T/C [16] 75.3% | viability, T/C [17] 75% | viability, T/C [18] 97.4% | viability, T/C [19] 73% | viability, T/C [20] 81.5% | viability, T/C [21] 82.5% | viability, T/C [22] 71% | viability, T/C [23] 75% | viability, T/C [24] 77.9% | viability, T/C [25] 77.2% | viability, T/C [26] 74.7% | viability, T/C [27] 80.2% | viability, T/C [28] 76.6% | viability, T/C [29] 80.1% | viability, T/C [30] 83.6%

CC1COCCN1c1cc(-c2ccnn2C)c2ccnc(-c3ccn[nH]3)c2n1 (stereo not given) + NC1CCC(NC2CC2c2ccccc2)CC1
< 3.16 nM: IC50 (second compound 0.316 µM)
56.6 nM: IC50 (second compound 0.1 µM)
9.22 nM: IC50 (second compound 3.16 µM)
5.07 nM: IC50 (second compound 10 µM)
inactive: viability, T/C (second compound 0.1 µM, first compound 0.00316 µM) 54.7% | viability, T/C (second compound 0.1 µM, first compound 0.01 µM) 56.7% | viability, T/C [1] 49% | viability, T/C [2] 45.1% | viability, T/C [3] 52.2% | viability, T/C [4] 42.4% | viability, T/C (second compound 0.316 µM, first compound 0.00316 µM) 52.6% | viability, T/C (second compound 0.316 µM, first compound 0.01 µM) 48.3% | viability, T/C [7] 42.5% | viability, T/C [8] 43.3% | viability, T/C [9] 51.6% | viability, T/C [10] 44.4% | viability, T/C (second compound 1 µM, first compound 0.00316 µM) 51% | viability, T/C (second compound 1 µM, first compound 0.01 µM) 56.5% | viability, T/C [13] 41.6% | viability, T/C [14] 40.2% | viability, T/C [15] 47.5% | viability, T/C [16] 44.2% | viability, T/C (second compound 3.16 µM, first compound 0.00316 µM) 55.4% | viability, T/C (second compound 3.16 µM, first compound 0.01 µM) 51.7% | viability, T/C [19] 41.8% | viability, T/C [20] 42% | viability, T/C [21] 49.7% | viability, T/C [22] 36.2% | viability, T/C (second compound 10 µM, first compound 0.00316 µM) 48.4% | viability, T/C (second compound 10 µM, first compound 0.01 µM) 54.9% | viability, T/C [25] 39.2% | viability, T/C [26] 34.7% | viability, T/C [27] 33.2% | viability, T/C [28] 31.6%
7.71 nM: IC50 (second compound 1 µM)

COc1ccc([C@@H](O)c2cc(-c3ncnc4cc(N5CCOCC5)ccc34)c(F)cc2Cl)nn1 + NC1CCC(NC2CC2c2ccccc2)CC1
inactive: viability, T/C [1] 94.5% | viability, T/C [2] 114% | viability, T/C [3] 89.8% | viability, T/C [4] 49% | viability, T/C [5] 30.2% | viability, T/C [6] 14.2% | viability, T/C [7] 112% | viability, T/C [8] 87.4% | viability, T/C [9] 69.6% | viability, T/C [10] 59.8% | viability, T/C [11] 30.8% | viability, T/C [12] 13.9% | viability, T/C [13] 79.7% | viability, T/C [14] 98.3% | viability, T/C [15] 79.2% | viability, T/C [16] 50.4% | viability, T/C [17] 28.4% | viability, T/C [18] 13.4% | viability, T/C [19] 77.7% | viability, T/C [20] 102% | viability, T/C [21] 77.9% | viability, T/C [22] 55% | viability, T/C [23] 23.9% | viability, T/C [24] 14.7% | viability, T/C [25] 71.3% | viability, T/C [26] 74.8% | viability, T/C [27] 56.7% | viability, T/C [28] 37.7% | viability, T/C [29] 22.9% | viability, T/C [30] 12.1%
1040 nM: IC50 (second compound 0.1 µM)
516 nM: IC50 (second compound 10 µM)
1180 nM: IC50 (second compound 0.316 µM) | IC50 (second compound 3.16 µM)
1120 nM: IC50 (second compound 1 µM)

Reference: PubChem BioAssay AID1918949 (Molecular Pharmacology Branch, DTP, NCI, 2023)
